From patent US12102607B2, “C5aR inhibitors for use in the treatment of chemotherapy-induced iatrogenic pain” (Dompe' Farmaceutici S.P.A., priority 2017, dated 2024) come the findings set out here.

Test [1] relates to DRG neurons. Kind of test: Synapse number on DRG neurons (synaptotagmin staining, image analysis). It counts as cell-based, Sprague Dawley rat. The note with it: for % of synapse number: relative to UT. The method, then:
(§1) Dorsal Root Ganglion neurons were obtained by dissociation of post natal (P2) Sprague Dawley rat ganglia (Envigo, Bresso Italy), following well-defined protocols (O'Meara et al, 2011; Owen et al, 2012). To minimize introduction of contaminating cells into the culture, any excessively long roots were trimmed from DRGs. After the isolation, DRGs were enzymatically dissociated as follows: • 20 minutes of 1.5 mg/ml papain exposure at 37° C., • 30 minutes of 4 mg/ml collagenase exposure at 37° C.
(§2) Subsequently, cells were mechanically dissociated with a fire polished glass Pasteur pipette, in order to obtain a single cell suspension.
(§3) Once dissociation was achieved, cells were seeded onto 96 black multiwell plates coated with Laminin (10 ug/mL, overnight at Room Temperature, RT) at selected densities. Following 1 week of incubation in DMEM high glucose medium supplemented with 10% FBS, 1× N2, 1× B27, 100 IU/mI penicillin, […] streptomycin, cells were treated according to experimental needs.
(§4) Alpha Tubulin Acetylation DRG-derived neurons were cultured for 7 days and then treated with:
(§5) • paclitaxel (200 nM, 500 nM, 1 μM and 5 μM, 20 μM) in presence or absence of DF3966Y (0.1, 1 and 10 μM) or DF2593A (0.1, 1 and 10 μM) • or C5a (500 ng/ml and 1 μg/ml) in presence or absence of DF3966Y (1 μM)
(§6) After 24 hr of treatment, cells were stained by immunofluorescence.
(§7) Cells were fixed with saccharose-paraformaldehyde then staining was performed overnight. Primary antibodies (anti—Ill Tubulin and anti-synaptotagmin 1) were diluted 1:500 in 1×PBS-4% BSA-2% Normal goat serum and 0.3% Triton x-100. The next day, cells were washed with 1×PBS-4% BSA and secondary antibodies were used diluted 1:500 in 1×PBS-4% BSA-2% Normal goat serum and 0.3% Triton x-100. After 1 hr of incubation, cells were washed with 1×PBS. Hoechst was used as a counterstain.
(§8) Sixteen images per well were taken with ArrayScan XTI HCA Reader (Thermo Fisher Scientific) with and 40× objective. All the analysis were done with HCS Studio software
For synapse count a threshold has been set, in particular all the objects, positive to synaptotagmin staining, in the range 0.365-2.457 μm^2 have been considered as synapses.
(§9) Cells number, synapse number and dentritic arborization were evaluated in untreated cells and in cells stimulated with paclitaxel and C5a alone or in presence of the drug. As marker of chemotherapy-induced toxicity, the total number of synapses on DRG neurons was quantitative evaluated as percentage of the number of synapse with respect to untreated (UT) control.
(§10) Data are obtained as the sum of the values obtained by the analysis of sixteen fields per well for each experiment. Percentage of the values in respect to the relative mean untreated group was calculated. Mean of the percentages from 4 separate experiments was plotted in the following Tables 2-7.

Test [2] relates to DRG neurons. As to the kind of experiment: Electrophysiological recordings (whole-cell patch-clamp, current-clamp) of DRG-derived neurons. It counts as cell-based, Sprague Dawley rat. The method, then: as §1
Dorsal Root Gangliar (DRG)-derived neurons were cultured for 7 days and then treated in blind with the following combinations: 10 nM Paclitaxel, 10 nM Paclitaxel+1 μM DF3966Y, 1 μg/ml C5a, 1 μg/ml C5a+1 μM DF3966Y.
The compounds were administered for 1 min 30 sec (short acute stimulation) or 5 minutes (long chronic stimulation). The application of the compounds was followed by a wash-out in the physiological control solution for an equivalent time (about 10 min).
Electrophysiological recordings were performed by the patch-clamp technique in the whole-cell configuration. The standard extracellr solution was bath applied and contained the following (mM): NaCl 135, KCl 2, CaCl2 2, MgCl2 2, hepes 10, glucose 5, pH 7.4. The standard pipet solution contained the following (mM): potassium aspartate 130, NaCl 10, MgCl2 2, CaCl2 1.3, EGTA 10, Hepes 10, pH 7.3. Recordings were acquired by the pClamp8.2 software and the MultiClamp 700A amplifier (Axon Instruments), in current-clamp mode.
A general note: Patch clamp records ionic current or voltage across a cell membrane.

The subject of test [3] is DRG neurons. Kind of test: Dendritic tree area of DRG neurons (image analysis). The test is classed as cell-based, Sprague Dawley rat. The note with it: for % dendritic tree area: relative to UT. The method, then:
as §1, §2, §3, §4, §5, §6, §7, §8
Dendritic arborization directly influences synaptic genesis and input. A well-developed arborization indicates a functional synaptic network. For this reason, the area occupied by dendritic arborization has been quantified.
as §10

Test [4] deals with DRG neurons. As to the kind of experiment: Cells number of DRG neurons (immunofluorescence, image analysis). The test is classed as cell-based. The note with it: for % of cell number: relative to UT. The method, then: as §1, §2, §3, §4, §5, §6, §7, §8, §9, §10
The subject of test [5] is acetylated α-Tubulin. Kind of test: In-cell western analysis of acetylated α-Tubulin in DRG neurons. The settings on record: for Acetylated α-Tubulin (% of UT): DRG neurons. The test is classed as cell-based, Sprague Dawley rat. As to the method: as §1, §2, §3
Dorsal Root Ganglion neurons isolated as previously reported were subjected to the following experimental challenge scheme as depicted in FIG. 10.
Paclitaxel, C5a and drugs were administered 24 hr prior the in-cell western experiment. Following 24 hr of treatment with appropriate stimuli as previously indicated, cells were washed with 1×PBS and fixed with 3,7% formaldehyde for 15 min. After the removal of fixing solution, cells were washed with 1×PBS and permeabilized with 1×PBS-0,1% Triton X-100 for 5 min at RT. Cells were then stained over night at 4° C. with the anti-acetylated α-Tubulin antibody, diluted 1:500 in Odyssey Blocking buffer, following manufacturer's protocol.
The next day, cells were washed with 1×PBS-0.1% Tween20, and stained with the secondary antibody (diluted 1:800 in Odyssey Blocking buffer, as recommended by the protocol) and with the CellTag 700Stain […]. To lower the background, Tween20 at a final concentration of 0.2% was added to the Odyssey Blocking buffer. 96-well plates were then read at Odyssey CLx Imaging system and images acquired. Data analysis was carried out by the use of Image Studio 2.1 software.
Paclitaxel was given to the DRG neurons following 7 days of culture at the concentration of 200 nM (Scuteri et al. 2006).
Effect of DF3966Y in C5α-induced neuronal toxicity In order to determine whether the observed effects may be triggered also by C5a, recombinant mouse C5a 1 μg/ml (111.11 nM) was given to the DRG neurons after 7 days of culture in presence or absence of DF3966Y 1 μM.
After 24 hr of incubation, acetylated α-Tubulin was quantified using in-cell western technique, as previously described.

Take `C[C@H](c1ccc(Nc2nc(C(F)(F)F)cs2)cc1)c1nnn[nH]1` [DF3966Y, 1-N-[4-[(1R)-1-(1H-tetrazol-5-yl)ethyl]phenyl}-4-(trifluoromethyl)-11,3-thiazol-2-amine]: the “% of synapse number” value in test [1] (DF3966Y 1 μM + C5a (Table 5)) stood at 111.33 ± 9.27%; in test [1] (DF3966Y 1 μM + PAC (Table 4)), 92.04 ± 21.01%; in test [1] (DF3966Y 1 μM alone (Table 4)) it was 99.89 ± 12.94%; in test [1] (DF3966Y 1 μM alone (Table 5)), 99.89 ± 12.94%. For the same compound, the “effect on Paclitaxel-induced decrease in synapse number” value in test [1] (DF3966Y 1 μM + paclitaxel) is given as “significantly counteracted Paclitaxel-induced effect”. In test [2] (10 nM Paclitaxel + 1 μM DF3966Y, first immediate phase and longer time of exposure), the “alteration of electrical activity under Paclitaxel plus drug” value is reported as “no significant alteration of electrical activity”. For the same compound, in test [2] (1 μg/ml C5a + 1 μM DF3966Y, longer time of exposure (3-5 minutes)), the “inhibition of electrical activity under C5a plus drug, longer time of exposure” value is “about 35%”. Also, the “alteration of electrical activity under C5a plus drug, short time points” value in test [2] (1 μg/ml C5a + 1 μM DF3966Y, short time points) was “no significant alteration of the electrical activity”. Besides, the “% dendritic tree area” value is reported as 106.45 ± 9.43% in test [3] (DF3966Y 1 μM + C5a (Table 7)), 101.21 ± 7.97% in test [3] (DF3966Y 1 μM + PAC (Table 6)), 103.07 ± 8.17% in test [3] (DF3966Y 1 μM alone (Table 6)) and 103.07 ± 8.17% in test [3] (DF3966Y 1 μM alone (Table 7)). Also, in test [3] (DF3966Y 1 μM + paclitaxel), the “effect on paclitaxel-induced decrease of dendritic arborization area” value was “seems to counteract such a decrease”. The “% of cell number” value was 96.65 ± 10.77% in test [4] (DF3966Y 1 μM + C5a (Table 3)), 98.83 ± 12.49% in test [4] (DF3966Y 1 μM + PAC (Table 2)), 101.55 ± 10.59% in test [4] (DF3966Y 1 μM alone (Table 2)) and 96.96 ± 6.45% in test [4] (DF3966Y 1 μM alone (Table 3)). The “effect on cell number” value in test [4] (DF3966Y administered alone or with PAC) was “did not exert any significant effect on cell number”. Also, in test [5] (DF3966Y 1 μM + C5a 1 μg/ml, 24 hr), the “levels of acetylated α-Tubulin under C5a plus drug” value was “significantly reduced the challenge induced by C5a exposure”. Moreover, the “Acetylated α-Tubulin (% of UT)” value in test [5] (drug 0.1 μM under Paclitaxel 200 nM, 24 hr) is 76.45 % of UT; in test [5] (drug 1 μM under Paclitaxel 200 nM, 24 hr), 65.16 % of UT; in test [5] (drug 10 μM under Paclitaxel 200 nM, 24 hr) it was 89.05 % of UT. Also, the “reversal of Paclitaxel-induced increase in acetylated α-Tubulin” value in test [5] (drug 0.1, 1, 10 μM, Paclitaxel 200 nM) is listed as “significantly reverted the Paclitaxel-induced challenge”.
Regarding `CC(=O)O[C@H]1C(=O)[C@@]2(C)[C@H]([C@H](OC(=O)c3ccccc3)[C@]3(O)C[C@H](OC(=O)[C@H](O)[C@@H](NC(=O)c4ccccc4)c4ccccc4)C(C)=C1C3(C)C)[C@]1(OC(C)=O)CO[C@@H]1C[C@@H]2O` [Paclitaxel, reference compound], in test [1] (PAC alone (Table 4)), the “% of synapse number” value is 88.02 ± 2.99%. For the same compound, in test [1] (Paclitaxel alone), the “effect on synapse number” value is recorded as “marked decrease in synapse number”. Also, the “action potential firing rate vs CTRL, immediate” value in test [2] (10 nM Paclitaxel alone, immediate phase) was “+54.64%”. The “electrical activity vs CTRL, longer times of exposure” value in test [2] (10 nM Paclitaxel alone, longer times of exposure) is on record as −83.51%. For the same compound, the “% dendritic tree area” value in test [3] (PAC alone (Table 6)) is recorded as 92.22 ± 3.47%. For the same compound, the “area occupied by dendritic arborization” value in test [3] (Paclitaxel alone) is “non-significant decrease”. In test [4] (Paclitaxel alone), the “effect on cell number” value was “slight decrease in cell number”. In test [4] (Paclitaxel alone (Table 2)), the “% of cell number” value worked out at 88.87 ± 6.04%. In test [5] (Paclitaxel 200 nM alone), the “change in acetylated α-Tubulin with respect to control (UT) cells” value is reported as “marginal yet significant increase”. In test [5] (Paclitaxel 200 nM alone, 24 hr), the “Acetylated α-Tubulin (% of UT)” value is given as 111.41 % of UT.
